The source of these data is patent publication US7763426B2, “Probes and methods for detection of Escheridia coli and antibiotic resistance” (priority 2004, dated 2010).

For one data set, the system named is Enterococcus 16S rRNA. The data set is described as follows: Amperometric detection of bacterial 16S rRNA, 65° C. hybridization (Examples 2, 3). The data set is classed as binding, Enterococcus faecalis. The conditions noted are these: for sensitivity of electrochemical sensor assay (cells detected): five-fold serial dilutions of enterococcal cells, capture probe EF207C, EF165D 5′-fluorescein, EF171D 3′-fluorescein.

Data set [1] is described as follows: Double-labeled Test Probes on the electrochemical sensor (no hybridization). The procedure: FIG. 7. The effect of oligonucleotide length on electrochemical signal intensity. Single stranded oligonucleotides (‘Test Probes’) ranging from 20-60 bps in length modified at the 5′- and 3′-ends with biotin and fluorescein, respectively, were tested to examine the effect of probe length on signal intensity. Hybridization was not required in these experiments because, as shown in the inset, the double-labeled probes served as a bridge between fluorescein and biotin on the electrochemical sensor surface. The highest signal output was obtained using the 40 bp probe, yielding a lower limit of detection at a concentration of 10 pM. Background current output was measured using negative control (NC) sensors to which no cell lysates were applied.
Sensor characterization and surface functional layer preparation. Microfabricated electrochemical sensor arrays with an alkanethiolate self-assembled monolayer (SAM) were obtained from GeneFluidics (Monterey Park, Calif.). […]
Amperometric Detection of bacterial 16S rRNA. […] Amperometric current vs. time was measured using a multichannel potentiostat (GeneFluidics). The voltage was fixed at −200 mV (vs. reference), and the electroreduction current was measured at 60 sec after the HRP redox reaction reached steady state. All samples were analyzed in duplicate. […] Positive signals are determined by comparing the signals with the background using paired T test. […]

The next data set has as its system E. coli 16S rRNA. The data set is described as follows: Amperometric detection of bacterial 16S rRNA, 65° C. hybridization (Examples 2, 3). In kind it is binding, Escherichia coli. The conditions noted are these: for sensitivity of electrochemical sensor assay (cells detected): five-fold serial dilutions of E. coli cells, capture probe EC434C, 5′-fluorescein 6 nt gap vs 3′-fluorescein 0 nt gap.

[2] abbreviates: 3′-fluorescein and continuity of hybridization sites vs 5′-fluorescein with gap.

{Fluorescein} = fluorescein label (binding site for anti-fluorescein Fab-HRP); {Biotin} = biotin (capture probe anchor)

Turning to “CCGCGGGTCCATCCATCAGCGACACCCGAAAGCGC (DNA CCGCGGGTCCATCCATCAGCGACACCCGAAAGCGC; sugars by position and backbone not given here; further chemistry not fully specified; listed as Enterococcus sp.) [EF171D]”, the improvement in sensitivity in the data set on Enterococcus 16S rRNA (setting [2]) is given as 24-25 fold. Further, the “sensitivity of electrochemical sensor assay (cells detected)” value (“sensitivity … (cells detected)” for short) with Enterococcus 16S rRNA was 9,400 cells.

Take “CGTCAATGAGCAAAGGTATTACTCCCTTCCTCCCCGCTGA (DNA CGTCAATGAGCAAAGGTATTACTCCCTTCCTCCCCGCTGA; DNA, 5' {Biotin}, 3' {Fluorescein}, backbone and methylation of C not given here) [40-mer]”: the “lower limit of detection” value in data set [1] (5′-biotin, 3′-fluorescein Test Probe) was found to be 10 pM. In addition, the “signal relative to 20mer and 60mer Test Probes” value in data set [1] (across a range of concentrations) is “higher signals”.

With “CTGAAAGTACTTTACAACCCGAAGGCCTTCTTCAT (DNA CTGAAAGTACTTTACAACCCGAAGGCCTTCTTCAT; DNA, backbone and methylation of C not given here; listed as Escherichia coli) [EC393D]”, the “sensitivity … (cells detected)” value in the data set on E. coli 16S rRNA is recorded as 6,200 cells. As for “GTCCATCCATCAGCGACACCCGAAAGCGCCTTTCA (DNA GTCCATCCATCAGCGACACCCGAAAGCGCCTTTCA; sugars by position and backbone not given here; listed as Enterococcus sp.) [EF165D]”, in the data set on Enterococcus 16S rRNA, the “sensitivity … (cells detected)” value is 232,000 cells.

On to “TCCCCGCTGAAAGTACTTTACAACCCGAAGGCCTT (DNA TCCCCGCTGAAAGTACTTTACAACCCGAAGGCCTT; sugars by position and backbone not given here; further chemistry not fully specified; listed as Escherichia coli) [EC399D]”, for which the improvement in sensitivity with E. coli 16S rRNA (setting [2]) was 24-25 fold. Also, the “sensitivity … (cells detected)” value in the data set on E. coli 16S rRNA amounted to 260 cells.
